Data as given in PubChem BioAssay AID1918999 (Molecular Pharmacology Branch, DTP, NCI, 2023).
pIC50: −log10 of the molar value.

Test system: 556581-035-R-J1-PDC complex spheroid growth
Assay: Anticancer human tumor 556581-035-R-J1-PDC patient-derived ovarian carcinoma cell line growth inhibition [AhR]
Conditions: for pIC50: curve of first compound; for viability, T/C: stronger effect = lower value
Summary of the method: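 Complex tumor spheroids co-cultured with HUVEC and human MSC stroma; AhR antagonists tested in combination with standard-of-care and investigational agents. Top concentration at or near clinical Cmax (else 10 microM), half-log dilutions; growth expressed as percent test/control.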

[1] = second compound 0.1 µM, first compound 0.00949 µM
[2] = second compound 0.1 µM, first compound 0.03 µM
[3] = second compound 0.1 µM, first compound 0.0949 µM
[4] = second compound 0.1 µM, first compound 0.3 µM
[5] = second compound 0.316 µM, first compound 0.00949 µM
[6] = second compound 0.316 µM, first compound 0.03 µM
[7] = second compound 0.316 µM, first compound 0.0949 µM
[8] = second compound 0.316 µM, first compound 0.3 µM
[9] = second compound 1 µM, first compound 0.00949 µM
[10] = second compound 1 µM, first compound 0.03 µM
[11] = second compound 1 µM, first compound 0.0949 µM
[12] = second compound 1 µM, first compound 0.3 µM
[13] = second compound 3.16 µM, first compound 0.00949 µM
[14] = second compound 3.16 µM, first compound 0.03 µM
[15] = second compound 3.16 µM, first compound 0.0949 µM
[16] = second compound 3.16 µM, first compound 0.3 µM
[17] = second compound 10 µM, first compound 0.00949 µM
[18] = second compound 10 µM, first compound 0.03 µM
[19] = second compound 10 µM, first compound 0.0949 µM
[20] = second compound 10 µM, first compound 0.3 µM
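For viability, T/C in this document: compound exposure lasted 7 days; 100% = DMSO vehicle control growth.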

| Compound | pIC50 (second compound 0.1 µM) | pIC50 (second compound 0.316 µM) | pIC50 (second compound 1 µM) | pIC50 (second compound 3.16 µM) | pIC50 (second compound 10 µM) | viability, T/C [1] | viability, T/C [2] | viability, T/C [3] | viability, T/C [4] | viability, T/C [5] | viability, T/C [6] | viability, T/C [7] | viability, T/C [8] | viability, T/C [9] | viability, T/C [10] | viability, T/C [11] | viability, T/C [12] | viability, T/C [13] | viability, T/C [14] | viability, T/C [15] | other results |
| --- | --- | --- | --- | --- | --- | --- | --- | --- | --- | --- | --- | --- | --- | --- | --- | --- | --- | --- | --- | --- | --- |
| Nc1ncn(C2CC(O)C(CO)S2)c(=O)n1 (stereo not given) + CC(CO)NC(=O)c1cc(-c2ccc(Cl)cc2)nn(-c2cnn(C)c2)c1=O | < 6.52 | < 6.52 | < 6.52 | < 6.52 | < 6.52 | 106% | 115% | 109% | 73.3% | 116% | 111% | 100% | 69.9% | 126% | 121% | 108% | 80.2% | 125% | 109% | 97.1% | viability, T/C (second compound 0.1 µM, first compound 0.000949 µM): 122%; viability, T/C (second compound 0.1 µM, first compound 0.003 µM): 117%; viability, T/C (second compound 0.316 µM, first compound 0.000949 µM): 112%; viability, T/C (second compound 0.316 µM, first compound 0.003 µM): 106%; viability, T/C (second compound 1 µM, first compound 0.000949 µM): 114%; viability, T/C (second compound 1 µM, first compound 0.003 µM): 131%; viability, T/C (second compound 3.16 µM, first compound 0.000949 µM): 123%; viability, T/C (second compound 3.16 µM, first compound 0.003 µM): 128%; viability, T/C [16]: 80.8%; viability, T/C (second compound 10 µM, first compound 0.000949 µM): 122%; viability, T/C (second compound 10 µM, first compound 0.003 µM): 111%; viability, T/C [17]: 111%; viability, T/C [18]: 125%; viability, T/C [19]: 106%; viability, T/C [20]: 84% |
| O=C(C=Cn1cnc(-c2cc(C(F)(F)F)cc(C(F)(F)F)c2)n1)NNc1cnccn1 + CC(CO)NC(=O)c1cc(-c2ccc(Cl)cc2)nn(-c2cnn(C)c2)c1=O | < 5.52 | < 5.52 | < 5.52 | < 5.52 | < 5.52 | 84% | 84.2% | 87.6% | 69.3% | 87.3% | 93% | 81% | 76% | 88.7% | 103% | 84% | 73.8% | 98.2% | 81.4% | 80.5% | viability, T/C (second compound 0.1 µM, first compound 0.949 µM): 66.9%; viability, T/C (second compound 0.1 µM, first compound 3 µM): 62.5%; viability, T/C (second compound 0.316 µM, first compound 0.949 µM): 71.2%; viability, T/C (second compound 0.316 µM, first compound 3 µM): 66%; viability, T/C (second compound 1 µM, first compound 0.949 µM): 68.2%; viability, T/C (second compound 1 µM, first compound 3 µM): 65.8%; viability, T/C [16]: 70%; viability, T/C (second compound 3.16 µM, first compound 0.949 µM): 62.7%; viability, T/C (second compound 3.16 µM, first compound 3 µM): 63%; viability, T/C [17]: 93.1%; viability, T/C [18]: 80%; viability, T/C [19]: 75.9%; viability, T/C [20]: 77.9%; viability, T/C (second compound 10 µM, first compound 0.949 µM): 72.7%; viability, T/C (second compound 10 µM, first compound 3 µM): 72.7% |
